Measurements as given in ChEMBL document CHEMBL5291721, “A preclinical secondary pharmacology resource illuminates target-adverse drug reaction associations of marketed drugs” (Nat Commun, 2023).

How the values were obtained:
[1] = target: T1, Alpha-1A adrenergic receptor (Homo sapiens, UniProt P35348); format: functional, cell-based
T1 sequence (P35348 whole entry): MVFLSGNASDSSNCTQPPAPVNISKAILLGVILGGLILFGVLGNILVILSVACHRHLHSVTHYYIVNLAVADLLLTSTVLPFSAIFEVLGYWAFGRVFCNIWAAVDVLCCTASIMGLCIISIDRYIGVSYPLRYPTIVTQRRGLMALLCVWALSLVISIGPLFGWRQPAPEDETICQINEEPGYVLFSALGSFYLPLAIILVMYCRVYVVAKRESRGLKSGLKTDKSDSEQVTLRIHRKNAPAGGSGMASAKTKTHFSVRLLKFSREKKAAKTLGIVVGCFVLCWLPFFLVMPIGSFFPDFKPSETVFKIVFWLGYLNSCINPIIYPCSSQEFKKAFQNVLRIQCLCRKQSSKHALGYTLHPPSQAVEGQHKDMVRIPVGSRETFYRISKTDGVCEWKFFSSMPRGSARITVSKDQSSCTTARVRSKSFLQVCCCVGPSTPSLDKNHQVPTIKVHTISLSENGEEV

[2] = target: 3',5'-cyclic-AMP phosphodiesterase 4D (Homo sapiens, UniProt Q08499); format: functional
3',5'-cyclic-AMP phosphodiesterase 4D, sequence (Q08499 whole entry): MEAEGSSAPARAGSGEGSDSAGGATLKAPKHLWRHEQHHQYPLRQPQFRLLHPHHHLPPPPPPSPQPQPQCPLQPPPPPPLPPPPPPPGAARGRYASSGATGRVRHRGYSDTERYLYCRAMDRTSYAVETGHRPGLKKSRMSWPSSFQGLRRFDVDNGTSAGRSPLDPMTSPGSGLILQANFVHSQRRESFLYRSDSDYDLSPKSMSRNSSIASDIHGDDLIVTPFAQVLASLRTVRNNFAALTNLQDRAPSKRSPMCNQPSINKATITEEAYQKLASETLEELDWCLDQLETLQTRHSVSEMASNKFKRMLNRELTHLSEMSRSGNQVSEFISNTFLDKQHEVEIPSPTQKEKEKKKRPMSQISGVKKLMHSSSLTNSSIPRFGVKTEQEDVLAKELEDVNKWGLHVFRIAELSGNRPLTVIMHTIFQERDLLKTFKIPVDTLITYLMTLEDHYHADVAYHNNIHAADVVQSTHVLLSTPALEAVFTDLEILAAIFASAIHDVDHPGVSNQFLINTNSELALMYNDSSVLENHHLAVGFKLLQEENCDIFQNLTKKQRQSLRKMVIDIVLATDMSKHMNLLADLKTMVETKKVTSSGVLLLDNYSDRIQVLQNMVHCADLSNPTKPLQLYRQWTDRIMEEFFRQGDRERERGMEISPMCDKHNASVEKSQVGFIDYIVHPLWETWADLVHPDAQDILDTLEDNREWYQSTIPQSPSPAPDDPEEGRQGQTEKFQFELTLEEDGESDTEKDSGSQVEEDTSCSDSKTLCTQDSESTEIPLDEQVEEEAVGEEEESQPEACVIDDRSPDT

Estrogen receptor = target: T2, Estrogen receptor (Homo sapiens, UniProt P03372)
T2 sequence (P03372 whole entry): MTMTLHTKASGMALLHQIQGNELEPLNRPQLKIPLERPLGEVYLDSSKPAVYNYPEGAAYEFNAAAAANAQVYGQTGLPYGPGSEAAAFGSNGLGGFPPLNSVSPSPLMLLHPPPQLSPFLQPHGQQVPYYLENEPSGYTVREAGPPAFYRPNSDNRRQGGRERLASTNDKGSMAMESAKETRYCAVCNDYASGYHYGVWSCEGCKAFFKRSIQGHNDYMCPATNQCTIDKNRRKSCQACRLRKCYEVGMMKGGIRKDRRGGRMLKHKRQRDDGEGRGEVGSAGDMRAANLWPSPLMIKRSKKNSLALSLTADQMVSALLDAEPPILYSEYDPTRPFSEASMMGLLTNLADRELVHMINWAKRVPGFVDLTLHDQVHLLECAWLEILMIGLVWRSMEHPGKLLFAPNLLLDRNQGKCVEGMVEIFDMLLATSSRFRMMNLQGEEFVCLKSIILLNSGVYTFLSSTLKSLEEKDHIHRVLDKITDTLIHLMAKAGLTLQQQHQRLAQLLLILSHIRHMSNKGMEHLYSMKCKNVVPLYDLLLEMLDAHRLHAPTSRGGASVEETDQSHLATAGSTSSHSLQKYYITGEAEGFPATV

Cannabinoid receptor 1 = Cannabinoid receptor 1 (Homo sapiens, UniProt P21554); format: functional, cell-based
Cannabinoid receptor 1, sequence (P21554 whole entry): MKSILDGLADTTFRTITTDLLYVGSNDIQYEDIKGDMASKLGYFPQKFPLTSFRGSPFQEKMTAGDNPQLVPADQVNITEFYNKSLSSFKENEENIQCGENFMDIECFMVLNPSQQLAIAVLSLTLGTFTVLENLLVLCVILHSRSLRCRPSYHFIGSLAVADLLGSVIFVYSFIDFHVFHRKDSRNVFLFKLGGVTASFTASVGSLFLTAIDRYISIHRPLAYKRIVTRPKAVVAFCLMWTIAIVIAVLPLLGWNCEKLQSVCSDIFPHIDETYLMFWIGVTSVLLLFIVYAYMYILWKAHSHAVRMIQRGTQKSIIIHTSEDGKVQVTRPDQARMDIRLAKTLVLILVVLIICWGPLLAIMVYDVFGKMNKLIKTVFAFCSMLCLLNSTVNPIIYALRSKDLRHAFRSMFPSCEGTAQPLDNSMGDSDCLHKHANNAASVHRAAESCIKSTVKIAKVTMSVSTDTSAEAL

[3] = target: 5-hydroxytryptamine receptor 2B (Homo sapiens, UniProt P41595); format: functional, cell-based
5-hydroxytryptamine receptor 2B, sequence (P41595 whole entry): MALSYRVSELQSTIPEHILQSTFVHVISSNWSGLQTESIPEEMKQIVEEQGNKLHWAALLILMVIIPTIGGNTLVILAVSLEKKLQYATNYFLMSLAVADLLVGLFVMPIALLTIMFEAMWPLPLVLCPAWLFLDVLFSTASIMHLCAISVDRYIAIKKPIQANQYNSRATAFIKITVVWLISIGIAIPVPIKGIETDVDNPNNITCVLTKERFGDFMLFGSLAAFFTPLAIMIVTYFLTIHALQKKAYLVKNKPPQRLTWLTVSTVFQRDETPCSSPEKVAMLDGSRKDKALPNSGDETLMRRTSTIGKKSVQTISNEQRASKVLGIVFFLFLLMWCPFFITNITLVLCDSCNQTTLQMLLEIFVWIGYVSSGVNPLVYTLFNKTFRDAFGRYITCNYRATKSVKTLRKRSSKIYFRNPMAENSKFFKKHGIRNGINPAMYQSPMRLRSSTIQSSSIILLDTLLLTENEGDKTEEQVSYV

[4] = target: Glutamate receptor ionotropic, NMDA 1 (Rattus norvegicus, UniProt P35439)
[5] = target: T3, 5-hydroxytryptamine receptor 1A (Homo sapiens, UniProt P08908); format: functional, cell-based
T3 sequence (P08908 whole entry): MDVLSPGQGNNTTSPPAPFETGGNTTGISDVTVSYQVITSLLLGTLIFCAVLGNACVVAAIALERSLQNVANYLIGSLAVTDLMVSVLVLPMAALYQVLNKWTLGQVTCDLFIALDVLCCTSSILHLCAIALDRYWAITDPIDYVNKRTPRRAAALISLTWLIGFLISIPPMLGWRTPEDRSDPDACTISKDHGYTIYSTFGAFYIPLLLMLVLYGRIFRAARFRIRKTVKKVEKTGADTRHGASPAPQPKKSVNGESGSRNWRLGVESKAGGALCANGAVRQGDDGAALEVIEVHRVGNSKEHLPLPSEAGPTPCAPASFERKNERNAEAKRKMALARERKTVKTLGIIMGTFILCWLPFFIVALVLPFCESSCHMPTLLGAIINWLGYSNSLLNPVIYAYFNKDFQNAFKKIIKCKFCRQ

Adenosine receptor A2a = Adenosine receptor A2a (Homo sapiens, UniProt P29274)
Adenosine receptor A2a, sequence (P29274 whole entry): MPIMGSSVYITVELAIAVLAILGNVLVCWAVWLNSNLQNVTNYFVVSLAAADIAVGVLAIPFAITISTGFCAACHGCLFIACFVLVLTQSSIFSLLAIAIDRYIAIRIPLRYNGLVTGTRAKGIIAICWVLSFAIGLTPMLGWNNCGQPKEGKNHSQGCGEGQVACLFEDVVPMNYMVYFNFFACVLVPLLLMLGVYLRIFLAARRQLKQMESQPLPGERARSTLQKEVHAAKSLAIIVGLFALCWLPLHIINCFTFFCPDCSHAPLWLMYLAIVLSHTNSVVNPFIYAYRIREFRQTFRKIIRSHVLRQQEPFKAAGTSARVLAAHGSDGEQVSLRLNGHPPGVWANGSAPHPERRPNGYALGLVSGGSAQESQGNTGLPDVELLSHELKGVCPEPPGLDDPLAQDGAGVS

Mu-type opioid receptor = Mu-type opioid receptor (Homo sapiens, UniProt P35372); assay: biochemical; format: functional
Mu-type opioid receptor, sequence (P35372 whole entry): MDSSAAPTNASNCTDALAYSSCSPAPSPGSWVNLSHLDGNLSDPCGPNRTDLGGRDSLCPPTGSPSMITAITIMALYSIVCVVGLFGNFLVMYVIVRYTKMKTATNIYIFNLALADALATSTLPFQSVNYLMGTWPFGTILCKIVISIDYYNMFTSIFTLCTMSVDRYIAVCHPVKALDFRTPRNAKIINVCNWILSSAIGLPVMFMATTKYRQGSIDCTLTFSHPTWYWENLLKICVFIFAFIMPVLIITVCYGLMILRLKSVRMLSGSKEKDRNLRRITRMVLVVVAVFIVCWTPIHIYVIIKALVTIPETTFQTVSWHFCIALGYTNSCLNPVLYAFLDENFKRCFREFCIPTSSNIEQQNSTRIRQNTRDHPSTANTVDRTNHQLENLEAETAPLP

D(3) dopamine receptor = D(3) dopamine receptor (Homo sapiens, UniProt P35462)
D(3) dopamine receptor, sequence (P35462 whole entry): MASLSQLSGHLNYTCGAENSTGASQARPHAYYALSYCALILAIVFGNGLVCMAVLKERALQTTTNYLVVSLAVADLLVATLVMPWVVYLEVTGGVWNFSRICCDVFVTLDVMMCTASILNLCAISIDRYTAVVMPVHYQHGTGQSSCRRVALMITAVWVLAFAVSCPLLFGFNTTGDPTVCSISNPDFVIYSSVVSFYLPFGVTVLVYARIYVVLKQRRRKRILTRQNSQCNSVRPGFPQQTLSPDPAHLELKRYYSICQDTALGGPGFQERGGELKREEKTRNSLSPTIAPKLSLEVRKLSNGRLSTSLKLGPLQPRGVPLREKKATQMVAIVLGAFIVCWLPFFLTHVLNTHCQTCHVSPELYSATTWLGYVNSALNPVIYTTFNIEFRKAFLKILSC

[6] = target: T4, Neuropeptide Y receptor type 1 (Homo sapiens, UniProt P25929)
T4 sequence (P25929 whole entry): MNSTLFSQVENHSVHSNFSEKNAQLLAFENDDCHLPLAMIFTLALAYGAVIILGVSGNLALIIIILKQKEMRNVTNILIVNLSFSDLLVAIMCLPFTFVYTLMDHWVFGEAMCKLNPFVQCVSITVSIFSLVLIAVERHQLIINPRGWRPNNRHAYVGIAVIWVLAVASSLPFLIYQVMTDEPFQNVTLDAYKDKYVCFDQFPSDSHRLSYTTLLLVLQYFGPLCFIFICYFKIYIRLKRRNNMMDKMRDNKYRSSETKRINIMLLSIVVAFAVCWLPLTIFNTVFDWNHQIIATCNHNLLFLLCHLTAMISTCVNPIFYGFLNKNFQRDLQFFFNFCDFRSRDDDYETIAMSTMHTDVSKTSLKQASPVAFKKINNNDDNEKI

[7] = target: T5, Alpha-2A adrenergic receptor (Homo sapiens, UniProt P08913); format: functional, cell-based
T5 sequence (P08913 whole entry): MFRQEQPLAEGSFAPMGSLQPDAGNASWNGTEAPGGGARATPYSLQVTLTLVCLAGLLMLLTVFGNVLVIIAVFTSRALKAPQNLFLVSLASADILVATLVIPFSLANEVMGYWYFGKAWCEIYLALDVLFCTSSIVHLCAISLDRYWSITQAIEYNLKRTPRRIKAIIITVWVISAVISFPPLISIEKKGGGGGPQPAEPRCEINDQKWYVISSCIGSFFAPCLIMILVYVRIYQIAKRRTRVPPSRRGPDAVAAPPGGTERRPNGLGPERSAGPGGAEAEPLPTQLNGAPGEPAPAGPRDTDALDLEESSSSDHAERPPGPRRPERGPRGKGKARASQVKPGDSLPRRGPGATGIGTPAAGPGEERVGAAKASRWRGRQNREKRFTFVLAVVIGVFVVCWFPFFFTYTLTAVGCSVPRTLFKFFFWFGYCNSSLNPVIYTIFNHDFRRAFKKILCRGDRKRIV

[8] = target: Neuronal acetylcholine receptor subunit alpha-4 (Homo sapiens, UniProt P43681)
Neuronal acetylcholine receptor subunit alpha-4, sequence (P43681 whole entry): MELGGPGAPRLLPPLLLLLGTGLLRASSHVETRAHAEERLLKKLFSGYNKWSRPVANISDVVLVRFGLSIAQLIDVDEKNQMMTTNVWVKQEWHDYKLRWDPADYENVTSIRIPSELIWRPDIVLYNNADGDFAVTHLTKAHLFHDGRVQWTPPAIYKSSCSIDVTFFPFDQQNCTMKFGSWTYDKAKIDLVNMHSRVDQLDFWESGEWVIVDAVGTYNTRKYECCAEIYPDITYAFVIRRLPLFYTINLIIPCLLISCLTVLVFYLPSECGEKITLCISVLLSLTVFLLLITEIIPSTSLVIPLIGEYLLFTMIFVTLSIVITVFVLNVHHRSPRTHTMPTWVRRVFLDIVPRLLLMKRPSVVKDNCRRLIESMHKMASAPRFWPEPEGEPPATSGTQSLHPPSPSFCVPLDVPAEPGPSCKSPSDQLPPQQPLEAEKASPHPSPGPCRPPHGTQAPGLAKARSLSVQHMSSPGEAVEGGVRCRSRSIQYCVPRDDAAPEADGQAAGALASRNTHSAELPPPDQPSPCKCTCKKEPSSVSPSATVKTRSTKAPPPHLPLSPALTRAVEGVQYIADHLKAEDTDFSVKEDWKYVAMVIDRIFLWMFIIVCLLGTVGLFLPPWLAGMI

D(1A) dopamine receptor = D(1A) dopamine receptor (Homo sapiens, UniProt P21728); format: functional, cell-based
D(1A) dopamine receptor, sequence (P21728 whole entry): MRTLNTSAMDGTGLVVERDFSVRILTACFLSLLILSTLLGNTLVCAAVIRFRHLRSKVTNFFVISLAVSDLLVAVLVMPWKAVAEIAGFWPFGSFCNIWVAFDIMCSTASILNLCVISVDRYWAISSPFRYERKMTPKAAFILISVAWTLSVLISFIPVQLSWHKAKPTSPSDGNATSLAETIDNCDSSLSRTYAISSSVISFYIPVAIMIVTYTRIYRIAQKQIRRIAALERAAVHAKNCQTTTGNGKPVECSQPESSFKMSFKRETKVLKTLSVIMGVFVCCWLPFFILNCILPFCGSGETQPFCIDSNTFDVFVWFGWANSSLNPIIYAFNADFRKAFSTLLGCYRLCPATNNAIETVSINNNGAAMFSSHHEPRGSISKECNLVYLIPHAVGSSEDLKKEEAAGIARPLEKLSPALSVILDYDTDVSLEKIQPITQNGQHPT
Also: assay procedure not described here.

SMILES | AC50 [1] | AC50 [2] | AC50 (Estrogen receptor) | AC50 (Cannabinoid receptor 1) | AC50 [3] | AC50 [4] | AC50 [5] | AC50 (Adenosine receptor A2a) | AC50 (Mu-type opioid receptor) | AC50 (D(3) dopamine receptor) | AC50 [6] | AC50 [7] | AC50 [8] | AC50 (D(1A) dopamine receptor)
CC(C)c1cc2c(cc1S(=O)(=O)O)[C@@]1(C)CCC[C@@](C)(C(=O)O)[C@@H]1CC2 [ECABET] | > 30 µM | > 30 µM | > 30 µM | > 30 µM | > 30 µM | > 30 µM | > 30 µM | > 30 µM | > 30 µM | > 30 µM | > 30 µM | > 30 µM | > 30 µM | > 30 µM
CCCN(CC)C(CC)C(=O)Nc1c(C)cccc1C (configuration not stated) [ETIDOCAINE] | > 30 µM | > 30 µM | > 30 µM | > 30 µM | > 30 µM | > 30 µM | > 30 µM | > 30 µM | > 30 µM | > 30 µM | > 30 µM | > 30 µM | > 30 µM | > 30 µM
Clc1ccc(C(Cn2ccnc2)OCc2ccc(Sc3ccccc3)cc2)c(Cl)c1 (configuration not stated) [FENTICONAZOLE] | > 30 µM | 18 µM | > 10 µM | 1.3 µM | > 30 µM | > 30 µM | > 30 µM | > 30 µM | > 30 µM | 30 µM | 30 µM | > 30 µM | > 10 µM | > 30 µM
O=C(O)c1ccccc1Nc1cccc(C(F)(F)F)c1 [FLUFENAMIC ACID] | > 30 µM | > 30 µM | > 30 µM | > 30 µM | > 30 µM | > 10 µM | > 30 µM | > 30 µM | > 30 µM | 3.5 µM | > 30 µM | > 30 µM | > 10 µM | > 10 µM
C#C[C@]1(O)CC[C@H]2[C@@H]3CCC4=CC(=O)CCC4=C3C=C[C@@]21CC [GESTRINONE] | > 30 µM | 4.1 µM | 6.1 µM | > 30 µM | 24 µM | > 30 µM | > 30 µM | > 30 µM | > 30 µM | > 30 µM | > 30 µM | 11 µM | > 30 µM | > 30 µM
CCCCCCOC(=O)CCC(=O)CN [HEXAMINOLEVULINATE] | > 30 µM | > 30 µM | > 30 µM | > 30 µM | > 30 µM | > 30 µM | > 30 µM | > 30 µM | > 30 µM | > 30 µM | > 30 µM | > 30 µM | > 30 µM | > 30 µM
Cc1ccc(NC(=O)C2(c3ccc4c(c3)OC(F)(F)O4)CC2)nc1-c1cccc(C(=O)O)c1 [LUMACAFTOR] | 25 µM | 15 µM | > 30 µM | > 30 µM | > 30 µM | > 30 µM | > 30 µM | > 30 µM | > 30 µM | > 30 µM | > 30 µM | > 30 µM | > 30 µM | > 30 µM
CN(c1nccc(=O)[nH]1)C1CCN(c2nc3ccccc3n2Cc2ccc(F)cc2)CC1 [MIZOLASTINE] | > 30 µM | 13 µM | > 30 µM | > 30 µM | 17 µM | > 30 µM | > 30 µM | > 30 µM | > 30 µM | > 30 µM | > 30 µM | 23 µM | > 30 µM | > 30 µM
Cc1ccc(=O)n(-c2ccccc2)c1 [PIRFENIDONE] | > 30 µM | > 30 µM | > 30 µM | > 30 µM | > 30 µM | > 30 µM | > 30 µM | > 30 µM | > 30 µM | > 30 µM | > 30 µM | > 30 µM | > 30 µM | > 30 µM
CCCNC(C)C(=O)Nc1ccccc1C (configuration not stated) [PRILOCAINE] | > 30 µM | > 30 µM | > 30 µM | > 30 µM | > 30 µM | 21 µM | > 30 µM | > 30 µM | > 30 µM | > 30 µM | > 30 µM | > 30 µM | > 30 µM | > 30 µM
CCCOC(C(=O)OC1CCN(C)CC1)(c1ccccc1)c1ccccc1 [PROPIVERINE] | > 30 µM | > 30 µM | > 30 µM | > 30 µM | 16 µM | > 30 µM | > 30 µM | > 30 µM | 3.6 µM | 2.5 µM | > 30 µM | > 30 µM | > 30 µM | > 30 µM
[H]/N=C(/N)N[C@H]1[C@H](O)[C@@H](O)[C@H](O[C@@H]2O[C@@H](C)[C@](O)(C=O)[C@H]2O[C@@H]2O[C@@H](CO)[C@H](O)[C@@H](O)[C@@H]2NC)[C@@H](N/C(N)=N\[H])[C@@H]1O [STREPTOMYCIN] | > 30 µM | > 30 µM | > 30 µM | > 30 µM | > 30 µM | > 30 µM | > 30 µM | > 30 µM | > 30 µM | > 30 µM | > 30 µM | > 30 µM | > 30 µM | > 30 µM
COc1cc2c(Nc3ccc(Br)cc3F)ncnc2cc1OCC1CCN(C)CC1 [VANDETANIB] | 22 µM | > 30 µM | > 30 µM | > 30 µM | 14 µM | > 30 µM | > 30 µM | > 30 µM | > 30 µM | 20 µM | > 30 µM | 2.1 µM | 9.6 µM | > 30 µM
